In brackets after ≈: the same amount, converted by molar mass. Several values for one entry are separate records, joined by “and”; a condition that tells them apart may be missing. Identical values can stand only once.
Experiments:
[1] = test system: seizure frequency in developmental and/or epileptic encephalopathy patients; test: Adult DEE patients: antiseizure efficacy (seizure frequency); type: in vivo, human
Source text: The third clinical trial was a randomized, double-blind, placebo controlled study. […] After the completion of Part A, 16 patients continued in Part B with open-label treatment for 60 additional days. Patients were included in the trial if they were 18-65 years of age with an established diagnosis of DEE, such as Lennox-Gastaut syndrome, Dravet syndrome, or tuberous sclerosis complex. For enrollment, patients were required to have had at least two bilateral motor seizures per month in the three months prior. In addition, during the 4-week baseline period prior to dosing, patients were required to have incurred at least one bilateral motor seizure. Exclusion criteria included abnormal ECG, degenerative eye disease, or admission to emergency care for treatment of status epilepticus that required mechanical ventilation.
Only patients having at least one bilateral seizure during the baseline study were eligible to continue. […] The range of seizure types included tonic-clonic, drop seizures, tonic, atonic, bilateral clonic, myoclonic-atonic, myotonic-tonic-clonic, and focal seizures. Aside from seizure history, subjects were also enrolled based on an establish diagnosis of DEE, such as Lennox-Gastaut syndrome (LGS) and Dravet syndrome (DS), tuberous sclerosis complex, and a history of special education or an overall intellectual quotient of <70. […] Subjects could continue taking 1-4 anti-seizure medicines (ASM), with the exception of stiripentol, during the study.
FIG. 9A depicts the study paradigm and FIG. 9B depicts the patient disposition. […] Part B consisted of an open-label 85-day extension study to ensure long-term safety and tolerability. The first 20 days of part A consisted of a tolerability titration phase, and thereafter a maintenance phase lasting from days 21-30.

[2] = Healthy Japanese subjects: safety and tolerability; type: in vivo, human
Source text: Primary Objective: To evaluate the safety and tolerability of TAK-935 in healthy Japanese subjects when administered as single oral dose or multiple oral doses with titration. Secondary Objective: To evaluate the PK of TAK-935 in healthy Japanese subjects when administered as single oral dose or multiple oral doses with titration.
This study consisted of 2 parts, and was a randomized, double-blind, placebo-controlled study to assess safety, tolerability, and PK and PD of TAK-935 when administered orally in healthy Japanese subjects.
The primary endpoint of the study included: Safety endpoint: Percentage of subjects who experience at least 1 TEAE Secondary endpoints included:
• Laboratory tests. • Vital signs. • ECG parameters.

[3] = Adult DEE patients (Part A/Part B): safety and tolerability; conditions: human, in vivo, 60 days
[4] = target: T1, CH24H (Homo sapiens, UniProt Q9Y6A2); test: PK/PD (PK/OE/24HC) turnover modeling; conditions: for BL / IC50 / IGAM / Imax / KOUT: ELEKTRA subjects; for BL: 24HC baseline
T1 construct: from tissue; host or cells: brain of living human trial subjects (in vivo)
Source text: Similar to the PK model, the PK/PD model was developed as a population mixed-effects model and incorporated the individual PK parameters from the final PK population model. A turnover model was used to characterize changes in plasma 24HC overtime. Plasma 24HC was considered to be at steady-state baseline (BL) before the start of treatment. […] PK/PD covariates were screened in a procedure similar to the PK covariates. In the final PK/PD model, two covariates, A1-AGLP and body weight affected baseline 24HC.
The PK/PD analysis dataset consisted of 2165 24HC observations from 3 phase I trials. Four subjects from the ELEKTRA study with large IC50 estimates were excluded from the dataset. Additionally, 42 individuals with large conditional weighted residuals were excluded from the dataset. The final dataset contained 2107 24HC observations from 248 subjects. Table 26 summarizes the modeling dataset with reference to example numbers, respective clinical trial ID, subject numbers, regimen, and number of observations and doses. Tables 27 and 28 summarize the categorical covariates used in PK/OE/24HC analysis from the entire dataset and the ELEKTRA study subset, respectively.
Tables 29 and 30 summarize the mean continuous variables used in the PK/OE/24HC covariate analysis from the entire PK/OE/24HC population studied and the ELEKTRA subset, respectively. In addition to the shared variables, the PK/PD dataset contained the individual final estimates of the population PK model parameters (IND_ALAG1, IND_KA, IND_CL, IND_V2, IND_Q, IND_V3, and IND_F1). Subjects without individual PK parameter estimates (e.g. subjects from the placebo arms) were assigned to the respective geometric mean of the estimated individual parameter values.
A turnover model was used to describe changes in 24HC concentration over time. […] The following formula estimates change in 24HC: […]
The indirect exposure effect (EFF) was estimated by an Imax model:
The effect-site concentration was implemented as a delayed equilibrium with the plasma/brain transit rate parameter (KPLBR):
The scaling parameter KPLBR was previously estimated in a competitive enzyme occupancy model derived from PET brain imaging data (NCT02497235, Table 19). Parameters derived from this base model were fixed at their previous final PK population estimates derived from example 12. However, no random effects could be estimated without enzyme occupancy data. FIG. 26 depicts the basic model structure in relation to observed and unobserved data. There was a strong growth-related increase in baseline 24HC levels, which was only observed in young subjects.
The following variables were screened by forward inclusion, backward exclusion F-tests: • Growth/maturity: Weight, BMI, and age • Protein binding: Albumin (ALB), A1-AGLP • Liver function: AST, ALT, GGT, and ALP • Kidney function: Creatinine clearance (CRCL), eGFR • Categorical variables: Asian, sex. Ethnicity, and disease type

[5] = multiple doses 100-300 mg BID, TAK-935 group

T1 sequence (Q9Y6A2 whole entry): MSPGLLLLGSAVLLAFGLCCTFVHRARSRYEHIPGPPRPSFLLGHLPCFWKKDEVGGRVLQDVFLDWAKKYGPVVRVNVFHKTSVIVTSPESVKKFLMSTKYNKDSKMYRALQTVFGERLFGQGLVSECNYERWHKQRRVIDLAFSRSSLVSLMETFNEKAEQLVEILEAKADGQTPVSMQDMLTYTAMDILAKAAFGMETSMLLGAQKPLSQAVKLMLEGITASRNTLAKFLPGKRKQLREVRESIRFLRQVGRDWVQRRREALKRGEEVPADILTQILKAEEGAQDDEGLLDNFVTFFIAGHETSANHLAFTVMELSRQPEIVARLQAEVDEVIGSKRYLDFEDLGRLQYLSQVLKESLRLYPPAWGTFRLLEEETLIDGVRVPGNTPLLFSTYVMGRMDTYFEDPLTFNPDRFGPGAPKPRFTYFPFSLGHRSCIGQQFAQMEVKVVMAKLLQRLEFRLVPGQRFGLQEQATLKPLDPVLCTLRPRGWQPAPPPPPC

O=C(c1cccnc1-c1ccncc1)N1CCC(O)(Cc2ccccc2)CC1 [soticlestat]
change in seizure frequency from baseline, individual patients ([1]; Part A, three patients treated concurrently with perampanel): +107% and +465% and +4% | median percent change from baseline seizure frequency ([1]; Part B maintenance, days 42-85 (n=16)): −36.38% | median percent change from baseline seizure frequency ([1]; Part B, excluding patients taking perampanel (n=13)): −44.66% | change in seizure frequency from baseline, individual patients ([1]; Part B, three patients taking perampanel): +297% and +398% and +175% | median seizure frequency ([1]; all completers except those taking perampanel): 25.60 per 28 days | reduction in seizure frequency in two patients ([1]; last 4 weeks/month of treatment): 100% | median percent change from baseline seizure frequency ([1]; last 28 days of Part B (post-hoc)): −60.74% | deaths, SAEs, TEAEs leading to discontinuation ([2]; healthy Japanese subjects): No deaths, SAEs, or TEAEs leading to study drug discontinuation | intensity of TEAEs ([2]; healthy Japanese subjects): All of the TEAEs were mild | subjects who experienced TEAEs [2, 5]: 5 subjects | subjects with drug-related TEAEs [2, 5]: 3 subjects | tolerability ([2]; single dose up to 1200 mg and multiple doses 100 to 300 mg BID): well tolerated | Insomnia, n participants [3]: 3 n | Lethargy, n participants [3]: 2 n | Seizure, n participants [3]: 3 n | KOUT typical value ([4]; 24HC elimination rate): 0.0215 h⁻¹ | BL ([4]; Mean): 96.4 ng/mL | BL ([4]; Median): 84.775 ng/mL | BL ([4]; Range): 31.63 to 303.45 ng/mL | IC50 ([4]; Mean): 0.0128 µg/mL (≈ 0.0343 µM) | IGAM ([4]; Mean): 0.83 | Imax ([4]; Mean): 93.5% | KOUT ([4]; Mean): 0.022 h⁻¹ | IC50 ([4]; Median): 0.01006 µg/mL (≈ 0.0269 µM) | IGAM ([4]; Median): 0.83 | Imax ([4]; Median): 93.5% | KOUT ([4]; Median): 0.022 h⁻¹ | IC50 ([4]; Range): 0.00217 to 0.076 µg/mL | IGAM ([4]; Range): 0.83-0.83 | Imax ([4]; Range): 93.5-93.5% | KOUT ([4]; Range): 0.022-0.022 1/h | maximum inhibition of 24HC synthesis (Imax), typical value ([4]; PK/PD turnover model): 93% | IC50 for 24HC, typical value ([4]; PK/PD turnover model, soticlestat concentration): 0.0101 µg/mL | 24HC Baseline (BL): age cut-off ([4]; covariate on BL): 21.2 y | 24HC Baseline (BL) typical value ([4]; final PK/OE/24HC model): 50.5 ng/mL | Enzyme Occupancy: KPLBR plasma-brain rate ([4]; final PK/OE/24HC model, fixed): 0.254 h⁻¹ | plasma/brain scaling parameter KPLBR (fixed) ([4]; from PET enzyme occupancy model): 0.254 h⁻¹ | Imax typical value ([4]; maximum inhibition of 24HC): 93.5%
